Ki data for 21 compounds are collected here from ChEMBL document CHEMBL1140508, “Novel C2-purine position analogs of nitrobenzylmercaptopurine riboside as human equilibrative nucleoside transporter 1 inhibitors” (Bioorg Med Chem, 2007).

The experiment has as its target T1, Equilibrative nucleoside transporter 1 (Homo sapiens, UniProt Q99808).
T1 sequence (Q99808 whole entry): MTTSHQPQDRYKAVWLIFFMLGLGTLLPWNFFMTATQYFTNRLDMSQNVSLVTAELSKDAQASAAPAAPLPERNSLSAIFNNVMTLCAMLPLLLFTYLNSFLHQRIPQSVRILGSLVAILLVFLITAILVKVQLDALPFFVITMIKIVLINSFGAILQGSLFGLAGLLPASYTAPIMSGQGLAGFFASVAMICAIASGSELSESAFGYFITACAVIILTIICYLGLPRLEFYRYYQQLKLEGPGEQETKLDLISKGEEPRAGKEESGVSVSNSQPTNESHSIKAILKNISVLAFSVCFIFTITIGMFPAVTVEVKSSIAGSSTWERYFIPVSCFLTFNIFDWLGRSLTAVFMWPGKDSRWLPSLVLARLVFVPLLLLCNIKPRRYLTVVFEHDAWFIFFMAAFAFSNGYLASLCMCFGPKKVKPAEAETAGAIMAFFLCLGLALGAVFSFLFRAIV
The experiment is described as follows: Displacement of SAENTA-fluorescein from human ENT1 in K562 cells after 45 mins by flow cytometry. In kind it is cell-based. A general note: In flow cytometry, cells or beads pass a laser one at a time.
As a reminder, the Ki is the equilibrium dissociation constant of an inhibitor or competing ligand from its target. The low end stands for higher affinity, the high end for lower affinity. `O=[N+]([O-])c1ccc(CSc2nc(F)nc3c2ncn3[C@@H]2O[C@H](CO)[C@@H](O)[C@H]2O)cc1` showed a Ki of 2.1 nM.
As to `CCCNc1nc(SCc2ccc([N+](=O)[O-])cc2)c2ncn([C@@H]3O[C@H](CO)[C@@H](O)[C@H]3O)c2n1`, the Ki was determined as 193 nM.
Under `CN(C)c1nc(SCc2ccc([N+](=O)[O-])cc2)c2ncn([C@@H]3O[C@H](CO)[C@@H](O)[C@H]3O)c2n1` stands 429 nM; under `O=[N+]([O-])c1ccc(CSc2nc(NC3CCC3)nc3c2ncn3[C@@H]2O[C@H](CO)[C@@H](O)[C@H]2O)cc1`, 33 nM.
Next, `CCCCCNc1nc(SCc2ccc([N+](=O)[O-])cc2)c2ncn([C@@H]3O[C@H](CO)[C@@H](O)[C@H]3O)c2n1`: 357 nM; `O=[N+]([O-])c1ccc(CSc2nc(NC3CCCCC3)nc3c2ncn3[C@@H]2O[C@H](CO)[C@@H](O)[C@H]2O)cc1`: 400 nM; `O=[N+]([O-])c1ccc(CSc2nc(Cl)nc3c2ncn3[C@@H]2O[C@H](CO)[C@@H](O)[C@H]2O)cc1`: 11 nM.
Next, `O=[N+]([O-])c1ccc(CSc2nc(NCCO)nc3c2ncn3[C@@H]2O[C@H](CO)[C@@H](O)[C@H]2O)cc1`: 86 nM.
`O=[N+]([O-])c1ccc(CSc2nc(N(CCO)CCO)nc3c2ncn3[C@@H]2O[C@H](CO)[C@@H](O)[C@H]2O)cc1` came in with a Ki of 243 nM.
Next, `O=[N+]([O-])c1ccc(CSc2nc(Br)nc3c2ncn3[C@@H]2O[C@H](CO)[C@@H](O)[C@H]2O)cc1`: 11 nM.
The compound `CC(=O)Nc1nc(SCc2ccc([N+](=O)[O-])cc2)c2ncn([C@@H]3O[C@H](CO)[C@@H](O)[C@H]3O)c2n1` gave a Ki of 34 nM.
`O=C(Nc1nc(SCc2ccc([N+](=O)[O-])cc2)c2ncn([C@@H]3O[C@H](CO)[C@@H](O)[C@H]3O)c2n1)c1ccccc1`: the affinity corresponds to a Ki of 315 nM.
Next, `O=[N+]([O-])c1ccc(CSc2nc(NCc3ccccc3)nc3c2ncn3[C@@H]2O[C@H](CO)[C@@H](O)[C@H]2O)cc1`: 247 nM; `CNc1nc(SCc2ccc([N+](=O)[O-])cc2)c2ncn([C@@H]3O[C@H](CO)[C@@H](O)[C@H]3O)c2n1`: 24 nM; `O=[N+]([O-])c1ccc(CSc2nc(NC3CC3)nc3c2ncn3[C@@H]2O[C@H](CO)[C@@H](O)[C@H]2O)cc1`: 25 nM.
Next, `CCCCNc1nc(SCc2ccc([N+](=O)[O-])cc2)c2ncn([C@@H]3O[C@H](CO)[C@@H](O)[C@H]3O)c2n1`: 325 nM; `O=[N+]([O-])c1ccc(CSc2nc(NC3CCCC3)nc3c2ncn3[C@@H]2O[C@H](CO)[C@@H](O)[C@H]2O)cc1`: 125 nM.
Under `O=[N+]([O-])c1ccc(CSc2nc(I)nc3c2ncn3[C@@H]2O[C@H](CO)[C@@H](O)[C@H]2O)cc1` stands 11 nM.
For `CCNc1nc(SCc2ccc([N+](=O)[O-])cc2)c2ncn([C@@H]3O[C@H](CO)[C@@H](O)[C@H]3O)c2n1`, the Ki was found to be 24 nM.
Under `Nc1nc(SCc2ccc([N+](=O)[O-])cc2)c2ncn([C@@H]3O[C@H](CO)[C@@H](O)[C@H]3O)c2n1` stands 1.1 nM.
`O=[N+]([O-])c1ccc(CSc2nc(NCCc3ccccc3)nc3c2ncn3[C@@H]2O[C@H](CO)[C@@H](O)[C@H]2O)cc1`: affinity was put at a Ki of 394 nM.
